Measured values as given in patent US7012068B2, “Co-administration of a polysaccharide with a chemotherapeutic agent for the treatment of cancer” (Pro-Pharmaceuticals, Inc., priority 2001, dated 2006).
Several values for one entry are separate records, joined by “and”; a condition that tells them apart may be missing. Equal values may be shown once. Read-outs that look alike come from different tables or passages of the source.

Key:
[1] = test system: Albino Swiss mice; conditions: 17 days
[2] = test system: COLO 205 human colon tumor; conditions: for Animals died, Total: over 8 weeks (incl. sacrificed); for Mean survival time: parametric models and stratified Kaplan-Meier estimation
[3] = test system: mice; conditions: cited from earlier work
[4] = test system: Albino Swiss mice; conditions: single i.v. LD50 dose of Adriamycin with or without galactomannan, 14 days
Description: Acute systemic toxicity of the anti-tumor drug adriamycin in the presence and absence of mannan was evaluated in Albino Swiss mice. Mice were bred as described Example 1. Experimental procedures followed approved governmental guidelines as described in Example 1.
A single dose intravenous injection of the adriamycin alone or adriamycin together with galactomannan preparations was provided via the tail vein at a dose of 0.5 mL/mouse at the doses described below in (1)-(3) and observed for clinical signs immediately after injection, and daily for the duration of the study.
There were a total of 3 groups of 5 animals each. The groups were as follows: 1) 0.9% NaCl only, 2) Adriamycin only (1.1 mg/mL) and Adriamycin (1.1 mg/mL)+galactomannan (7.2mg/mL).
0.9% NaCl was used as a diluent. Animals were weighed prior to injection and at the end of the observation period. Animals surviving at the end of the study were sacrificed by carbon dioxide inhalation.
The ability of galactomannan to reduce the toxicity of LD50 dosed of Adriamycin was measured by presence or absence of mortality in animals injected with the combination of Adriamycin and the particular polysaccharide.

[5] = 1 week after treatment initiation, q4d × 3, 5-FU 75 mg/kg, GM 120 mg/kg
[6] = 1 week after treatment initiation, q4d × 3, 5-FU 75 mg/kg, GM 120 mg/kg, 10 mice per group
[7] = 2 weeks after treatment initiation, q4d × 3, 5-FU 75 mg/kg, GM 120 mg/kg
[8] = 2 weeks after treatment initiation, q4d × 3, 5-FU 75 mg/kg, GM 120 mg/kg, 10 mice per group
[9] = 3 weeks after treatment initiation, q4d × 3, 5-FU 75 mg/kg, GM 120 mg/kg
[10] = 3 weeks after treatment initiation, q4d × 3, 5-FU 75 mg/kg, GM 120 mg/kg, 10 mice per group
[11] = 4 weeks (28 days) after treatment initiation, q4d × 3, 5-FU 75 mg/kg, GM 120 mg/kg
[12] = 4 weeks after treatment initiation, q4d × 3, 5-FU 75 mg/kg, GM 120 mg/kg, 10 mice per group
[13] = 5 weeks (35 days) after treatment initiation, q4d × 3, 5-FU 75 mg/kg, GM 120 mg/kg
[14] = 5 weeks after treatment initiation, q4d × 3, 5-FU 75 mg/kg, GM 120 mg/kg, 10 mice per group
[15] = 6 weeks after treatment initiation (incl. sacrificed), q4d × 3, 5-FU 75 mg/kg, GM 120 mg/kg, 10 mice per group
[16] = 6 weeks after treatment initiation, q4d × 3, 5-FU 75 mg/kg, GM 120 mg/kg
[17] = 7 weeks after treatment initiation (incl. sacrificed), q4d × 3, 5-FU 75 mg/kg, GM 120 mg/kg, 10 mice per group
[18] = 7 weeks after treatment initiation, q4d × 3, 5-FU 75 mg/kg, GM 120 mg/kg
[19] = 8 weeks after treatment initiation (incl. sacrificed), q4d × 3, 5-FU 75 mg/kg, GM 120 mg/kg, 10 mice per group
[20] = Day 0 after treatment initiation, q4d × 3, 5-FU 75 mg/kg, GM 120 mg/kg
[21] = Day 3 after treatment initiation, q4d × 3, 5-FU 75 mg/kg, GM 120 mg/kg
[22] = i.v. q4d × 3, 5-FU 75 mg/kg, GM 120 mg/kg
[23] = i.v. q4d × 3, 5-FU 75 mg/kg, GM 120 mg/kg, 10 mice per group
[24] = q4d × 3, 5-FU 75 mg/kg, GM 120 mg/kg, 10 mice per group
[25] = q4d × 3, 5-FU 75 mg/kg, GM 120 mg/kg
[26] = GM 60 mg/kg q1d × 5, 10 mice per group

## O=c1[nH]cc(F)c(=O)[nH]1 [5-FU, 5-fluorouracil, reference compound]
[1]; single i.v. 5-FU 420 mg/kg with or without galactomannan
  death rate (mice dying / mice in group): 3/5
[2]; [5]
  Median tumor weight: 198 mg
[2]; [6]
  Animals died: 1
[2]; [7]
  Median tumor weight: 245 mg
[2]; [8]
  Animals died: 2
[2]; [9]
  Median tumor weight: 352 mg
[2]; [10]
  Animals died: 0
[2]; [11]
  Median tumor weight: 527 mg
[2]; [12]
  Animals died: 0
[2]; 5-FU 375 mg/kg/dose q4d×3, alone or with galactomannan 120 mg/kg/dose
  deaths out of ten mice within 10 days after the treatment initiation: nine
[2]; [13]
  Median tumor weight: 990 mg
[2]; [14]
  Animals died: 1
[2]; [15]
  Animals died: 0
[2]; [16]
  Median tumor weight: 1345 mg
[2]; [17]
  Animals died: 0
[2]; [18]
  Median tumor weight: 1881 mg
[2]; [19]
  Animals died: 1
[2]; [20]
  Median tumor weight: 101 mg
[2]; [21]
  Median tumor weight: 135 mg
[2]; [22]
  Median days to 2× doubling of tumor weight: 23.7 days
[2]; [23]
  Animals with small tumors (20% and less) compared to median of untreated after 4-8 weeks of treatment: 1
[2]; out of ten mice, q4d×3, 5-FU 75 mg/kg/dose, galactomannan 120 mg/kg/dose
  treatment-related (nonspecific) deaths within two weeks: three
[2]; [24]
  Animals died, Total: 5
[2]; [25]
  Mean survival time: 23.7 days
[3]; 5-FU, single dose in mice, Physician's Desk Reference 48th Edition
  LD50: 340 mg/kg

## galactomannan [GM]
[1]; individual male mouse, single i.v. 0.5 mL/mouse: 5-FU 17 mg/mL, GM 4.73 mg/mL, 5-FU 17 mg/mL + GM 9.06 mg/mL
  Signs of Toxicity (summary of clinical observations): None
[2]; 1 week after treatment initiation, GM 60 mg/kg q1d × 5
  Median tumor weight: 216 mg
[2]; 1 week after treatment initiation, GM 60 mg/kg q1d × 5, 10 mice
  Animals died: 1
[2]; [5]
  Median tumor weight: 258 mg
[2]; [6]
  Animals died: 0
[2]; 2 weeks after treatment initiation, GM 60 mg/kg q1d × 5
  Median tumor weight: 319 mg
[2]; 2 weeks after treatment initiation, GM 60 mg/kg q1d × 5, 10 mice
  Animals died: 0
[2]; [7]
  Median tumor weight: 320 mg
[2]; [8]
  Animals died: 0
[2]; 3 weeks after treatment initiation, GM 60 mg/kg q1d × 5
  Median tumor weight: 512 mg
[2]; 3 weeks after treatment initiation, GM 60 mg/kg q1d × 5, 10 mice
  Animals died: 0
[2]; [9]
  Median tumor weight: 629 mg
[2]; [10]
  Animals died: 0
[2]; [11]
  Median tumor weight: 959 mg
[2]; 4 weeks after treatment initiation, GM 60 mg/kg q1d × 5
  Median tumor weight: 690 mg
[2]; 4 weeks after treatment initiation, GM 60 mg/kg q1d × 5, 10 mice
  Animals died: 1
[2]; [12]
  Animals died: 0
[2]; [13]
  Median tumor weight: 1692 mg
[2]; 5 weeks after treatment initiation, GM 60 mg/kg q1d × 5
  Median tumor weight: 1116 mg
[2]; 5 weeks after treatment initiation, GM 60 mg/kg q1d × 5, 10 mice
  Animals died: 0
[2]; [14]
  Animals died: 0
[2]; [15]
  Animals died: 1
[2]; 6 weeks after treatment initiation, GM 60 mg/kg q1d × 5
  Median tumor weight: 1421 mg
[2]; 6 weeks after treatment initiation, GM 60 mg/kg q1d × 5, 10 mice
  Animals died: 0
[2]; [16]
  Median tumor weight: 1690 mg
[2]; 7 weeks after treatment initiation (incl. sacrificed), GM 60 mg/kg q1d × 5, 10 mice
  Animals died: 1
[2]; [17]
  Animals died: 0
[2]; 7 weeks after treatment initiation, GM 60 mg/kg q1d × 5
  Median tumor weight: 1152 mg
[2]; [18]
  Median tumor weight: 1764 mg
[2]; 8 weeks (56 days) after treatment initiation, GM 60 mg/kg q1d × 5
  Median tumor weight: 1152 mg
[2]; 8 weeks (56 days) after treatment initiation, q4d × 3, 5-FU 75 mg/kg, GM 120 mg/kg
  Median tumor weight: 1813 mg
[2]; [19]
  Animals died: 1
[2]; 8 weeks after treatment initiation, GM 60 mg/kg q1d × 5, 10 mice
  Animals died: 0
[2]; Day 0 after treatment initiation, GM 60 mg/kg q1d × 5
  Median tumor weight: 117 mg
[2]; [20]
  Median tumor weight: 100 mg
[2]; Day 3 after treatment initiation, GM 60 mg/kg q1d × 5
  Median tumor weight: 162 mg
[2]; [21]
  Median tumor weight: 162 mg
[2]; GM 60 mg/kg q1d × 5
  Median days to 2× doubling of tumor weight: 20.0 days
  Mean survival time: 18.1 days
[2]; [26]
  Animals with small tumors (20% and less) compared to median of untreated after 4-8 weeks of treatment: 0
  Tumor complete regression after 56 days of treatment: 0
[2]; [22]
  Median days to 2× doubling of tumor weight: 15.5 days
[2]; [23]
  Animals with small tumors (20% and less) compared to median of untreated after 4-8 weeks of treatment: 1
  Tumor complete regression after 56 days of treatment: 0
[2]; GM 60 mg/kg q1d × 5, 10 mice
  Animals died, Total: 3
[2]; [24]
  Animals died, Total: 2
[2]; [25]
  Mean survival time: 19.2 days

## COc1cccc2c1C(=O)c1c(O)c3c(c(O)c1C2=O)C[C@@](O)(C(=O)CO)C[C@@H]3O[C@H]1C[C@H](N)[C@H](O)[C@H](C)O1 [Adriamycin, doxorubicin]
[4]
  mortality (mice died / mice in group): Three out of 5 and 3 out of 5
[4]; listed as adriamycin
  mortality (mice died / mice in group): 3/5
[3]; Adriamycin, i.v. in mice, The Merck Index, 12th Edition
  LD50: 21.1 mg/kg
